Measured values taken from patent publication US8026217B2, “Compositions and methods for treating neural anoxia and spreading depression” (Florida Atlantic University, priority 2007, dated 2011).
“Also recorded” adds a separate entry of the source. Where two headings read alike, the source gives them in different places.

Assays:
[1] = system: PKG; test: PKG enzyme activity assay on heads of treated flies; type: biochemical, Drosophila melanogaster; details: heads of sitter flies treated in vivo with volatilized agent, versus sham control
Method: PKG enzyme activity assays: PKG enzyme activity assays were conducted according to the procedure outlined in Kaun et al. (J Exp Biol. 210(Pt 20):3547-3558, 2007). Adult Drosophila were decapitated and the heads were homogenized in 25 mM 1-1 Tris (pH 7.4), 1 mM 1-1 EDTA, 2 mM 1-1 EGTA, 5 mM 1-1 β-mercaptoethanol, 0.05% Triton X-100 and protease inhibitor solution (Roche Diagnostics). Following microcentrifugation for 5 min, the supernatant was removed and those supernatants containing equal amounts of total protein were examined for PKG enzyme activity. The reaction mixture contained the following substances: 40 mM 1-1 Tris-HCl (pH 7.4), 20 mM 1-1 magnesium acetate, 0.2 mM 1-1 [γ^32P]ATP (500-1000 c.p.m. pmol−1), […] heptapeptide (RKRSRAE), (SEQ ID NO:6), (3 mM 1-1 cGMP and a highly specific inhibitor of cAMP-dependent protein kinase. The next step of the procedure involved incubating the reaction mixtures at a temperature of 30° C. for 10 min, followed by ending the reaction by spotting 70 μl of the reaction mixture onto Whatman P-81 filters. To remove any unreacted [γ^32P]ATP, these spots were then soaked with 75 mM 1-1 H3PO4 for 5 min and washed three times with 75 mM 1-1 H3PO4. Before quantifying enzyme activity, filters were rinsed with 100% ethanol and air dried. To calculate PKG enzyme activity, counts were taken in a Wallac 1409 Liquid Scintillation Counter using universal scintillation cocktail (ICN). PKG activity was presented in the figures as pmol of ^32P incorporated into the substrate min−1 mg−1 protein.

[2] = system: adult Drosophila melanogaster; type: in vivo; details: sitter adults, volatilized from DMSO 1 hr, 1 mM KT5823, 1 mM Cantharidin, 200 mM DCA, 10 mM 8-Bromo cGMP, 10 mM T-0156, versus DMSO sham
Method: FIG. 9 is a diagram illustrating in vivo treatment of adult Drosophila melanogaster with pharmacological agents. […] Adult sitters were exposed to various drugs known to target components of the PKG pathway (FIG. 8A). These drugs included: 10 mM T0156, a cGMP-specific phosphodiesterase-5 inhibitor, 10 mM 8-Bromo-cGMP, a PKG activator, 1 mM KT5823, a PKG inhibitor, 1 mM Cantharidin, a PP2A inhibitor, and 200 mM DCA, a K^+ channel activator. All drugs were solubilized in dimethyl sulfoxide (DMSO), where flies treated with only DMSO were used as sham controls. […] 10 μL of drug solution was applied to a crushed Kim wipe at the bottom of each 10 mL test vial. An additional Kim wipe was crushed over top of this to prevent direct contact between the fly and solution. 10 flies were then placed in the vial which was capped with a semi-permeable buzz-stopper, covered with a cut-out finger of a large latex glove to prevent chemical vapours from escaping, and incubated in the dark. The flies were subjected to the drug for 1 hr prior to each behavioural assay. In the drug combination experiments, 20 uL of DMSO was used as a control sham, and combinations of two pharmacological treatments were added as two separate 10 uL aliquots.
Whether or not fly PKG levels could be manipulated in vivo using a technique that uses volatilization of pharmacological agents was next examined. The role of these targets in vivo using sitter flies was examined by depositing pharmacological agents dissolved in DMSO on a cellulose tissue, and allowing them to volatize over minutes in an air tight vial at room temperature (FIG. 9). Adults were exposed to the volatilized compound for one hour in the dark and then assayed for locomotory resilience to acute hypoxia. Control sham animals (FIG. 7A) were treated with only DMSO. Compounds were chosen to target different components of the cGMP pathway (FIG. 8A) in tracheal smooth muscle and Chinese hamster ovary cells, where cGMP activates PKG, thereby activating PP2A, which then de-phosphorylates K^+ channels. The hypothesis that inhibition of this pathway would result in an increase in whole cell K^+ channel conductance, thereby leading to increased resilience to anoxic coma onset, was tested.
Locomotory Tolerance Assay during Acute Hypoxia: Ten flies (separated into males or females) from each of the three strains (rover [for^R], sitter [for^S] and for^s2) were selected and placed in three separate vials with food at least 24 hours before each experiment. At the time of the experiment, flies were emptied into 10 mL empty test vials covered with permeable sponge caps of equivalent thickness, allowing for consistent gas exchange. These test vials were then placed into a 600 mL beaker which was covered with parafilm, creating a closed chamber with an escape hole (1 cm diameter). The parafilm top was punctured with a needle connected to a gas tank (by a plastic hose), through which the inert gas argon was expelled. […] The needle tip was fastened to the bottom of the beaker and inserted into a larger sponge of similar texture to the vial sponge caps to ensure that gas expelled from the needle was dispersed equally throughout the beaker. Also, to ensure that all test vial positions in the beaker received equal gas flow, test vial positions were alternated every trial to reduce variability.
The experiment required exposing the test vials with 10 flies in the container to pure argon gas expelled from the tank at a flow rate of 600 cc/min+/−5%. Time of behavioural failure was recorded by observing the fly undergo a seizure, which was quickly followed by an anoxic coma.

Row | Structure (SMILES) | head PKG enzyme activity ([1]; listed as 8-Bromo cGMP) | head PKG enzyme activity ([1]; listed as 8-bromo cGMP) | time to anoxic coma onset during acute hypoxia, single agents ([2]; listed as 8-Bromo cGMP) | time to anoxic coma onset during acute hypoxia, single agents ([2]; listed as 8-bromo cGMP) | head PKG enzyme activity [1] | time to anoxic coma onset during acute hypoxia, single agents [2]
1 | Nc1nc2c(nc(Br)n2[C@@H]2O[C@@H]3COP(=O)(O)O[C@H]3[C@H]2O)c(=O)[nH]1 [8-Br-cGMP] | demonstrated significant effects compared to that of the sham control | induced an increase in head PKG activity levels; also recorded: increasing head PKG activity levels significantly beyond rover levels | exhibited significant sensitivity to anoxic coma | enhanced sensitivity to acute hypoxia; also recorded: expedited locomotory failure during acute hypoxia of sitters to rover levels |  | 
2 | COC(=O)[C@@]1(OC)C[C@H]2O[C@]1(C)n1c3ccccc3c3c4c(c5c6ccccc6n2c5c31)C(=O)N(C)C4 [KT5823, (9S, 10R, 12R)-2,3,9,10,11,12-Hexahydro-10-methoxy-2-9-dimethyl-1-oxo-9,12-epoxy-1H-diindolo-[1,2,3-fg:3′,2′,1′-k1]pyrrolo[3,4-i][1,6]benzodiazocine-10-carboxylic acid methyl ester] |  |  |  |  | significantly reducing PKG activity; also recorded: demonstrated significant effects compared to that of the sham control | significant increase in tolerance to acute hypoxia; also recorded: demonstrated significant resilience to anoxic coma
